Data as given in patent publication US6555546B2, “Use of 5HT3 antagonists for promoting intestinal lavage” (Janssen Pharmaceutics, N.V., priority 1997, dated 2003).
Where “and” joins values, the source holds several entries; their conditions need not be identical. Identical values can stand only once. Like-named read-outs stand apart in the source and are kept apart here.

How the values were obtained:
[1] = molecular target: T1, 5HT3 receptor (Mus musculus, UniProt P23979); assay: In vitro 5HT3 receptor binding with [3H]GR 65630
T1 construct: Cells were homogenized in tris.HCl buffer; endogenous in cells; host or cells: NxG 108CC15 (NG108-15) cell membranes
T1 sequence (P23979 24-489): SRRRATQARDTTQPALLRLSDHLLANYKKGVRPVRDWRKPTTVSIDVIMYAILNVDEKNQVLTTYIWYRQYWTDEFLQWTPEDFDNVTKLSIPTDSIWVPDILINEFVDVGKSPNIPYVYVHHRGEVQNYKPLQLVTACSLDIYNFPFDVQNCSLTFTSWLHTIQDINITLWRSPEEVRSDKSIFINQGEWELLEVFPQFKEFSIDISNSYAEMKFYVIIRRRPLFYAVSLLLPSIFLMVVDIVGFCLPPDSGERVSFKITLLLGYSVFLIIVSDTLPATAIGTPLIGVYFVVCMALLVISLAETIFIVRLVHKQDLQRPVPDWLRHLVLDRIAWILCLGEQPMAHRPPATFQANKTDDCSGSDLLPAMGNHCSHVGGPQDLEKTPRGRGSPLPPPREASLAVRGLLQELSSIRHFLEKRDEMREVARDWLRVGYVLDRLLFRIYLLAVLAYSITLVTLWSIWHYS
Procedure: The incubation was run for 60 minutes at 37° C. Labelled membranes were collected and […] by rapid filtration under suction over […] filters (presoaked in 0.1% polyethyleneimine for at least 1 hour) using a 40-well filtration manifold. […] All experiments were repeated independently at least two times. Radioactivity on the filters was counted in a Packard Tri-carb 1600CA liquid scintillation analyzer. Counting data were collected directly in a Macintosh SE personal computer and further transferred to a Macintosh II personal computer. Counting data from assays in the presence of a compound were automatically expressed as percent of total binding measured in the absence of test compound. Inhibition curves plotting percent of total binding versus the log concentrations of the test compound were automatically generated.

[2] = system: Beagle dogs; assay: MgSO4 induced intestinal lavage in dogs; format: in vivo, dog; details: Canis lupus familiaris; po, 1 hour before oral MgSO4 (200 ml); liquid stools within 4 hours; read-out: MgSO4 induced intestinal lavage ED50 (95% c.l.)
Procedure: (§1) Beagle dogs of both sexes and varying in body weight were used. During the experiments, the dogs were individually housed in cages. They were uniquely identified by an ear tattoo number (received at the time of weaning). The animals were fasted overnight but were given free access to fresh tap water via automatic drinking nipples in the back of the cage.
Beagle dogs (of both sexes and varying in body weight, 16 hours deprived from food) were orally pretreated with the test compound (0.5 ml/kg) and challenged 1 hour later with an oral administration of magnesium sulphate (MgSO4.7H2O, 64 g/l, 0.26 M; 200 ml). The onset of MgSO4-induced intestinal lavage was assessed over a period of 4 hours after challenge. Liquid stools within 4 hours occured almost never in control animals treated with distilled water (3.0% false positives; n>100) and were considered to reflect significant acceleration of the MgSO4-induced intestinal lavage. Doses in the active dose range were given to five animals each, tested in separate experimental sessions including solvent-treated control animals.

[3] = system: Beagle dogs; assay: KleanPrep-induced intestinal lavage in dogs; format: in vivo, dog; details: for ED50: Canis lupus familiaris, oral pretreatment one hour earlier
Procedure: as §1
The dogs were orally pretreated with test compound or distilled water (0.5 ml/kg) and 1 hour later challenged by gavage with KleanPrep® solution. Dependent on the type of experiment, the KleanPrep® solution was administered more than once at 15 minutes intervals. The standard administration volume was 200 ml. The occurrence of liquid stools at 1, 2, 3, 4, 5 and 6 hours after the first administration of KleanPrep® was noted. The KleanPrep® solution consisted of polyethyleneglycol 3350 (59 g/l), sodium sulfate (5.685 g/l), sodium hydrogencarbonate (1.685 g/l), sodium chloride (1.465 g/l), potassium chloride (0.7425 g/l), aspartate (0.0494 g/l) and vanille (0.3291 g/l).
Each dose of the test compounds was given to 5 animals.

[4] = fourth experiment: 2×200 ml KleanPrep, relative to ED50 for within 4 hours

| Structure (SMILES) | Ki [1] [nM] | ED50 [2] [mg/kg] | other results |
| --- | --- | --- | --- |
| CN1[C@@H]2CC[C@H]1C[C@@H](OC(=O)c1cc(Cl)cc(Cl)c1)C2 [Bemesetron] | 8 | 0.77 | – |
| COc1cc(N)c(Cl)cc1C(=O)NC1CN2CCC1CC2 (racemic) [(±)-Zacopride] | – | 0.023 | – |
| Cc1nccn1CC1CCc2c(c3ccccc3n2C)C1=O (racemic) [(±)-Ondansetron] | – | 0.097 | – |
| CN1C2CCCC1CC(NC(=O)c1nn(C)c3ccccc13)C2 (stereo not drawn) [(endo)-Granisetron] | – | 0.014 | – |
| CC(C)n1c(=O)n(C(=O)N[C@H]2C[C@H]3CC[C@@H](C2)N3C)c2ccccc21 [BIMU-8] | 0.29 | 0.016 | – |
| COc1cc(N)c(Cl)cc1C(=O)NC1CCN2CCCC1C2 (racemic) [(±)-Renzapride] | 10 | 0.074 | – |
| CN1[C@@H]2CC[C@H]1C[C@@H](OC(=O)c1c[nH]c3ccccc13)C2 [(endo)-Tropisetron] | – | 0.074 | – |
| Cn1cc(C(=O)[C@@H]2CCc3nc[nH]c3C2)c2ccccc21 [(−)-YM-060] | 0.14 | 0.0012 | – |
| CO[C@@H]1CN(CCCNc2nccc(=O)[nH]2)CC[C@@H]1NC(=O)c1cc(Cl)c(N)c2c1OC(C)(C)C2 (relative stereo) [Compound A, (−)-cis-4-amino-5-chloro-2,3-dihydro-N-[1-[3-[(3,4-dihydro-4-oxo-2-pyrimidinyl)amino]propyl]-3-methoxy-4-piperidinyl]-2,2-dimethyl-7-benzofurancarboxamide] | – | 0.0027 | Ki ([1]; N×G 108CC15 cell membranes, [3H]GR 65630 2 nM, 60 min 37° C, logarithmic mean and 95% confidence limits, read-out: 5HT3 receptor Ki (95% c.l.)): 0.58 nM; ED50 ([3]; read-out: ED50 liquid stools within 1 hour, fourth experiment: 2×200 ml KleanPrep): 0.085 mg/kg; ED50 ([3]; fourth experiment: 2×200 ml KleanPrep, read-out: ED50 liquid stools within 4 hours): 0.0036 mg/kg; dose increment for liquid stools within 1 hour [3, 4]: 24 times; dose increment for liquid stools within 2 hours [3, 4]: 3 times; dose increment for liquid stools within 3 hours [3, 4]: 1.1 times; dogs displaying liquid stools within 2 hours after KleanPrep administration ([3]; second experiment: single 200 ml KleanPrep, 0.16 mg/kg p.o. one hour earlier): three out of five; dogs displaying first liquid stool within 2 hours after first administration of KleanPrep ([3]; third experiment: 4×200 ml KleanPrep at 15 minute intervals, 0.16 mg/kg p.o. one hour earlier): all five; time of first liquid stool after first administration of KleanPrep (individual dogs) ([3]; third experiment: 4×200 ml KleanPrep at 15 minute intervals, 0.16 mg/kg p.o. one hour earlier, 0.16 mg/kg): 38 min and 39 min and 42 min and 52 min and 77 min |
| CCn1c(=O)n(C(=O)OC2C[C@H]3CC[C@@H](C2)N3C)c2ccccc21 (stereo partly drawn) [DAU-6236] | 6.6 | 0.049 | – |
